Assay results: patent US20170044232A1, “MUTANT SMOOTHENED AND METHODS OF USING THE SAME” (GENENTECH, INC., priority 2014, published 2017)
“Also recorded” adds a separate entry of the source.

How the values were obtained:
[1] = tested on: PPT CGNPs expressing vismodegib-resistant SMO mutants; assay: PPT CGNP proliferation, methyl-[3H]-thymidine incorporation; type: cell-based, mice; conditions: 1 μM JQ1 (FIG. 16B)
Description: (§1) It has previously been noted that Hh-driven tumor cells rapidly lose their Hh pathway dependence during culturing (Sasai et al., 2006). However, CGNPs proliferate in vivo in a Hh dependent manner and maintain their Hh pathway dependence in culture for a finite period (Wechsler-Reya and Scott, 1999). CGNPs isolated from Ptch1loxp/loxp Tp53loxp/loxp Rosa26LSL-tdTomato (PPT) pups were infected with lentiviral constructs expressing a SMO variant together with an enhanced green fluorescent protein (eGFP)-Cre fusion protein (FIG. 12C). The Cre recombinase induces loss of Ptch1 and thus ensures that only transduced CGNPs can proliferate in the absence of exogenous Sonic hedgehog ligand (SHH; FIG. 11D). […] Proliferation by methyl-[3H]-thymidine incorporation was monitored, while Cre-dependent tandem dimer (td) Tomato expression enabled visualization and quantification of infected cells.
(§2) SMO mutants were generated in pRK5-SMO vectors as described (Dijkgraaf et al., 2011; Yauch et al., 2009) and were either utilized in Gli-luciferase reporter assays as described (Dijkgraaf et al., 2011) or cloned into lentiviral vectors for transduction of primary CGNP cultures. Proliferation was assayed using methyl-[3H]-thymidine incorporation (Kool et al., 2014).
(§3) Cerebella from post-natal day 5-7 Ptch1^loxp/loxp Rosa26^LSL.tdTomato Tp53^loxp/loxp mice were dissociated in 0.05% Trypsin for 10 min at 37° C. Cells were collected by centrifugation at 514×g for 10 min at 4° C., resuspended in CGNP media (Neurobasal medium (Life Technologies) containing 1×B27 (without vitamin A; Life Technologies), 0.45% glucose (Sigma Aldrich), 25 mM KCl, 0.4% bovine serum albumin (Sigma Aldrich), 2 mM glutamine, 100 U/ml Penicillin (Life Technologies), 100 μg/ml Streptomycin (Life Technologies), 200 ng/ml octylated recombinant SHH) and filtered through a 0.45 μm filter (Falcon). Cells were plated in poly-D-lysine coated 6-well plates (Corning) at 5×10E5 cells/well and infected with lentivirus at a multiplicity of infection (MOI) of 1. After 24 hr, cells were harvested by trypsinization, collected in CGNP media and replated for downstream applications.
(§4) To examine the effects of HPIs on proliferation, virally transduced CGNPs were plated in poly-D-lysine-coated 96-well plates (Corning) at 25,000 cells/well in CGNP media without SHH. […] After 24 hr, cells were pulsed with 1 μCi/ml methyl-[^3H]-thymidine (Amersham/GE Healthcare) and cultured for an additional 16-24 hr. Cells were harvested onto 96-well filter plates (Perkin Elmer) using a Filtermate Cell Harvester (Perkin Elmer), and incorporated radioactivity was quantified by liquid scintillation spectrophotometry on a TopCount NXT (PerkinElmer).

[2] = molecular target: T1, SMO-A459V (Homo sapiens, UniProt Q99835, A459V); assay: Gli-luciferase based Hh reporter assay; type: cell-based; conditions: C3H10T½ cells
T1 construct: expressed in transfected cells; host or cells: C3H10T1/2 cells
T1 sequence (Q99835 28-787 A459V): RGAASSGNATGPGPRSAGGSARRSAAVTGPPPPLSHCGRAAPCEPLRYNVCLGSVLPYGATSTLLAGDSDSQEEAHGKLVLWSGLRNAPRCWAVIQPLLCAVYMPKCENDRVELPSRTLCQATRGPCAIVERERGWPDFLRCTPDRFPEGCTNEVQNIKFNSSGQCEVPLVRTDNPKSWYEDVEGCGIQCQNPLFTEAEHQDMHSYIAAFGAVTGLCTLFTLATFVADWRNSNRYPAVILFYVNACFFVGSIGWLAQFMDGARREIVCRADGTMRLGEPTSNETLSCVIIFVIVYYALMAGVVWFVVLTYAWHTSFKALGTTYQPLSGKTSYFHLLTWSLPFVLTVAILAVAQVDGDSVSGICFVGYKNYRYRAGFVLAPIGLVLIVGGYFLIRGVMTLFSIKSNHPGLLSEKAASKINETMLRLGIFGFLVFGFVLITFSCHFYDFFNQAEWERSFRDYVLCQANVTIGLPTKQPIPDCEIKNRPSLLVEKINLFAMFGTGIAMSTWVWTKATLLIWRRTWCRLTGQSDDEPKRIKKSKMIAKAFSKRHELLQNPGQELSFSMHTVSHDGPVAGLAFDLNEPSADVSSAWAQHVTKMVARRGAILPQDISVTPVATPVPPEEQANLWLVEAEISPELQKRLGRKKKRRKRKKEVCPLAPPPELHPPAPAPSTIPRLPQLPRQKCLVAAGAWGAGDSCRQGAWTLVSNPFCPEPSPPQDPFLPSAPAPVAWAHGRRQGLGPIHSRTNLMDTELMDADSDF
Description: as §2
C3H10T½ cells (ATCC) were seeded into six-well plates at 1.75×10E5 cells/well in DMEM High Glucose with 4 mM glutamine, 10 mM Hepes pH 7.2 and 10% FBS. After 16 h cells were transfected with 400 ng of expression construct, 400 ng of 9×-Gli-BS and 200 ng of pRL-TK per well using GeneJuice Transfection Reagent (Novagen). For the PTCH1 inhibition experiments, cells were transfected with 200 ng SMO expression construct and an additional 200 ng of DNA containing varying ratios of PTCH1 to empty vector. Six hours later, cells from one well were trypsinized and redistributed over four wells of a 12-well plate. After 16 hours the FBS content of the culture medium was reduced to 0.5% to induce formation of primary cilia, and small molecule Hh inhibitors were added at indicated concentrations. Firefly luciferase activity was determined 24 hours later with the Dual-Glo Luciferase Assay System (Promega) and read using a Wallac EnVision plate reader (Perkin Elmer). […]

[3] = tested on: PPT CGNPs infected with SMO DBP mutants; assay: PPT CGNP proliferation, methyl-[3H]-thymidine incorporation; type: cell-based, mice; conditions: all DBP mutations; >1 μM vismodegib (FIG. 12D)
Description: as §1, §2, §3, §4

[4] = tested on: SMO-A459V expressing CGNPs; assay: as above; type: cell-based, mice; conditions: SMO-A459V (FIG. 15D)
Description: as §1, §2, §3, §4

[5] = tested on: SMOW535L expressing CGNPs; assay: as above; type: cell-based, mice; conditions: SMOW535L (FIG. 15D)
Description: as §1, §2, §3, §4

[6] = molecular target: SMO L515A (Homo sapiens, UniProt Q99835, L515A); conditions: 1 mM vismodegib; cited from earlier work
Chain of SMO L515A (Q99835 28-787 L515A): as the sequence (Q99835 28-787 A459V) above, with V432A, L488A counted along it

[7] = molecular target: SMO E518K (Homo sapiens, UniProt Q99835, E518K); conditions: cited from earlier work
Chain of SMO E518K (Q99835 28-787 E518K): as the sequence (Q99835 28-787 A459V) above, with V432A, E491K counted along it

[8] = molecular target: SMO E518A (Homo sapiens, UniProt Q99835, E518A); conditions: cited from earlier work
Chain of SMO E518A (Q99835 28-787 E518A): as the sequence (Q99835 28-787 A459V) above, with V432A, E491A counted along it

[9] = tested on: advanced BCC; conditions: majority of patients; complete and partial responses (Sekulic et al., 2012); cited from earlier work

## Cc1sc2c(c1C)C(c1ccc(Cl)cc1)=N[C@@H](CC(=O)OC(C)(C)C)c1nnc(C)n1-2 [JQ1]
[1]
  proliferation in the presence of JQ1: reduced proliferation

## CS(=O)(=O)c1ccc(C(=O)Nc2ccc(Cl)c(-c3ccccn3)c2)c(Cl)c1 [vismodegib]
[2]
  sensitivity to inhibition by vismodegib: decreased sensitivity; also recorded: reduced sensitivity
[3]
  proliferation at high levels of vismodegib: continuing to proliferate
[4]
  proliferation at high concentrations of vismodegib: continued to proliferate
[5]
  proliferation at high concentrations of vismodegib: continued to proliferate
[6]
  sensitivity to inhibition by vismodegib: activating, sensitive
[7]
  sensitivity to vismodegib: reduced sensitivity to
[8]
  sensitivity to vismodegib: reduced sensitivity to
[9]
  clinical outcome of BCC patients treated with vismodegib: clinical benefit
